US20130338092A1, “COMPOUNDS AND METHODS FOR TARGETING LEUKEMIC STEM CELLS” (The Broad Institute, Inc., priority 2011, published 2013)
Entries after “also recorded” stand apart in the source; their conditions may differ.

Columns and labels:
LSC (dsRed+) = assay: Stromal pretreatment of primary MSC stroma, triple coculture, leukemia cells; format: cell-based, murine; conditions: stroma pretreated three days, LSCs and HSPCs comingled
Procedure: (§1) In the context of primary MSC stroma (uncolored), both HSPCs (from actin-GFP mice (000329, Jackson Lab)) and LSC (dsRed+) populations were comingled together in a ratio of 2:1 within the same 384format wells. As in the stromal pretreatment screen with OP9 stroma, BRD7116 was added for three days to the stroma prior to the addition of the hematopoietic populations. 5 days after compound addition, wells were imaged in the red and green channels and total cells were counted using MetaXpress software from MDC.
(§2) This experiment was also performed in the context of primary MSC stroma. Both HSPCs and LSC populations were comingled together in the same wells, as a “triple” coculture.

HSPCs = assay: Stromal pretreatment of primary MSC stroma, triple coculture, HSPCs; format: cell-based, murine; conditions: stroma pretreated three days, LSCs and HSPCs comingled
Procedure: as §1, §2

CD45.1+ HSPCs = test system: CD45.1+ HSPCs; set-up: species or system mice; conditions: mouse, in vivo
Procedure: Heterotypic cocultures containing dsRed+ LSCs, CD45.1+ HSPCs, and GFP+ MSCs were exposed to compounds for 48 hours, then transplanted en masse post trypsinization with untreated wild-type helper splenocytes (CD45.1+CD45.2+) into lethally irradiated, wildtype recipient animals (CD45.2+). Latency of leukemia onset was compared for mice receiving cocultures treated with compound compared to DMSO control treated cocultures. The engraftment of the normal HSPCs treated and injected along with the leukemia cells was quantified by FACs analysis of the bone marrow of mice alive at the 16 week endpoint across treatments.
As in vivo readouts may better reflect hematopoietic stem cell function compared to in vitro readouts (Purton, L. E., and Scadden, D. T. (2007). Cell Stem Cell 1, 263-270.; Bock, T. A. (1997). Stem Cells 15 Suppl 1, 185-195.), our results were confirmed using murine transplantation studies. […] Compounds that increase disease latency relative to DMSO control are considered active. […] Bone marrow repopulating ability is a functional measure of normal HSPCs, assessed by quantifying long-term engraftment and differentiation patterns in recipient mice (Bock, T. A. (1997). Stem Cells 15 Suppl 1, 185-195.; Nguyen, L. V., Vanner, R., Dirks, P., and Eaves, C. J. (2012). Nat Rev Cancer 12, 133-143.). […]

[1] = test system: leukemia cells on OP9 cells; assay: Coculture pulse treatment experiment; format: cell-based, murine; conditions: 24 hours at Day 1 or Day 4 post LSC plating
Procedure: (§3) 13,500 GFP+ OP9 cells were plated onto gelatin coated, 96 well black, clear bottom plates (3904, Corning). 24 hours later, 2,000 sorted leukemia cells were plated onto the monolayer. Compounds (5 μM) were added either 1 (early pulse) or 4 (late pulse) days later at the same 5 μM working concentration of main coculture screen. In both cases, compounds were removed after 24 hours of treatment, the wells were washed, and fresh media without compound was added. The plates were imaged and analyzed 6 days after leukemia cell plating. The viability of the stroma was assessed using stromal monolayers grown alone and treated in parallel, with the same readout described in the stromal toxicity screen above.

OP9 stromal monolayers = assay: Stromal viability in pulse treatment experiment (CellTiter-Glo); format: cell-based, murine; conditions: compared to DMSO control
Procedure: OP9 or MSCs were plated in white, 384 well plates (3570, Corning) and 24 hours later compounds were added in 8-point dose as described. Three days later the plates were put out to cool to room temperature, the cultures were aspirated, and 50 μl of CellTiterGlo reagent (G7570, Promega) diluted 1:3 in PBS was added to each well. The plates were covered and placed on an orbital shaker for 20 minutes then analyzed using either an LJL Analyst (LJL) or Envision (Perkin Elmer).
as §3

[2] = test system: primary CD34+ cells from normal human cord blood; assay: Human CD34+ CAFC assay, normal cells; conditions: 1.25 μM to 10 μM, 18 hours exposure
Procedure: Samples were centrifuged over Ficoll-Paque PLUS (GE Heathcare) step gradient (2000×g for 30 min in 50 ml tubes) to obtain mononuclear cells and then CD34^+ cells were selected with immunomagnetic beads (MACS Cell Separation, Miltenyi Biotec, Auburn, Calif.), except in one case, NPM1 mutation, which was CD34^− by flow cytometry and mononuclear cells were used. 50,000 cells were placed into 12.5 cm^2 flasks (Becton Dickinson Labware, Franklin Lakes, N.J.) in co-culture with the MS-5 mouse bone marrow-derived stromal cell line (kindly provided by Dr. Itoh, Dept. of Biology, Niigata University, Japan) and DMSO control and the number of final cobblestones was later read. The number of cells needed to form one cobblestone was then placed in triplicate for each sample with each drug at serial drug dilutions from 10 μM to 0.63 μM as well as with DMSO 0.5% for control purposes and incubated overnight with Iscove's modified Dulbecco's medium (IMDM, in house media preparation laboratory)+20% fetal calf serum (FCS, Atlanta Biologicals, Lawrenceville, Ga.) with glutamine (2 mM/ml, in house media preparation laboratory), monothioglycerol (MTG, 10 nM/ml, Sigma Cell Culture, St. Louis Mo.), c-Kit ligand (20 ng/ml, Amgen, Thousand Oaks, Calif.), Flt ligand (20 ng/ml, Imclone, Bridgewater, N.J.), TPO (20 ng/ml, Amgen) and IL-3 (20 ng/ml, Amgen). […]
The cells were treated with compound or DMSO carrier control at four doses (ranging from 1.25 μM to 10 μM) in triplicate for 18 hours, washed thoroughly, then plated onto human stromal MS-5 monolayers (Itoh, K., Tezuka, H., Sakoda, H., Konno, M., Nagata, K., Uchiyama, T., Uchino, H., and Mori, K. J. (1989). Exp Hematol 17, 145-153.) and maintained in coculture with one subsequent half media change. After 5 weeks (2 weeks for the FLT3-ITD sample (Moore, M. A., Dorn, D. C., Schuring a, J. J., Chung, K. Y., and Morrone, G. (2007). Exp Hematol 35, 105-116.)), cobblestone formation was determined, and dose-response curves against the 7 cell types were generated for each compound.

Structure (SMILES)	leukemia cells on pretreated MSC stroma (LSC (dsRed+))	numbers of comingled HSPCs on pretreated MSC stroma (HSPCs)	differentiation patterns of engrafted HSPCs (CD45.1+ HSPCs)	leukemia cells at Day 6 endpoint after 24 hour pulse [1]	leukemia cells at Day 6 endpoint after 24 hour pulse ([1]; listed as lovastatin)	stromal viability after 24 hour pulse (CellTiter-Glo) (OP9 stromal monolayers)	toxicity against normal primary CD34+ cells (human CAFC) [2]
CC1(C)C(C(=O)Nc2ccc(S(=O)(=O)c3ccc(NC(=O)C4C(C)(C)C4(C)C)cc3)cc2)C1(C)C [BRD7116]	selective inhibition of the leukemia cells; also recorded: an inhibition of the leukemia cells was observed	a decrease in the numbers of comingled HSPCs was not observed					
CCC(C)C(=O)OC1CC(C)C=C2C=CC(C)C(CCC(O)CC(O)CC(=O)O)C21 (stereo not shown) [Lovastatic acid]			normal differentiation patterns	strong inhibition of leukemia cells	near-complete loss of leukemia cells	no effect on stromal viability	neither compound showed toxicity
